Assay results as given in patent US12516085B2, “Methods and compositions for treating Myc-driven cancers” (Sanford Burnham Prebys Medical Discovery Institute, priority 2019, dated 2026).
Entries after “also recorded” stand apart in the source; their conditions may differ.

Assays:
Assay type in all cases: cell-based
[1] = system: Hi- and Lo-Myc cell lines; experiment: Proliferation of Hi- and Lo-Myc cell lines transfected with lentiviral vectors expressing GFP, HNB or HNB(ATG>TGA); conditions: 8 Hi- and Lo-Myc cell lines; lentiviral overexpression
Source text: To determine the function of the HNB, the Hi- and Lo-Myc cell lines were transfected with lentiviral vectors expressing GFP, HNB or HNB where the start site has been mutated (HNB(ATG>TGA)).

[2] = system: MSTO-211H-HNB^i; experiment: Proliferation after Doxycycline-induced HNB expression, MSTO-211H-HNB^i; conditions: following Doxycycline treatment
Description: (§1) In addition, an inducible lentiviral system was developed, in which the transgene could be expressed under a Doxycycline inducible promoter. The system was verified by inserting eGFP as the transgene and by flow analysis of GFP^+ cells in absence and presence of doxycycline as shown in FIG. 8. […] The same system was used to clone HNB under the regulation of a Doxycycline inducible promoter and generate the cell lines MSTO-211H-HNB^i and U2OS-HNB^i. […] Western blot analysis was performed of Myc protein in Hi-Myc cell line MSTO-211H-HNB^i.

[3] = system: U2OS-HNB^i; experiment: Proliferation after Doxycycline-induced HNB expression, U2OS-HNB^i; conditions: following Doxycycline treatment
Description: as §1

[4] = system: Myc protein; experiment: Western blot of Myc protein after Doxycycline-induced HNB expression in MSTO-211H-HNB^i; conditions: Hi-Myc cell line MSTO-211H-HNB^i; following Doxycycline induction
Description: as §1

“HNB: 14 amino acid micro-peptide MKTQLGAVKGFLHV (SEQ ID NO: 1) coded by shORF at Exon 3-4 junction of PVT1ts; expressed from lentiviral vectors” was tested, and the proliferation [1] was “failed to proliferate”, the proliferation rate [2] was “significant reduction in their proliferation rates” and the proliferation rate [3] was “significant reduction in their proliferation rates”. The “Myc protein expression (western blot, relative to β-Actin)” value [4] was “decreased; also recorded: reduced MYC protein”.
